# Legend:
# [1] = Kreitlow, Dissertation Greifswald 2000; cited from earlier work
# MRSA = MRSA growth in vitro; format: cell-based, Staphylococcus aureus; conditions: natural substances after the inventive method
SMILES,antibacterial activity [1],growth of MRSA in vitro (MRSA)
CCCCCC(O)/C=C/C=C\CCCCCCCC(=O)O (stereo not shown) [coriolic acid],antibacterial activity,
CCCCC/C=C/C=C/C(O)CCCCCCCC(=O)O (stereo not shown) [dimorphecolic acid],antibacterial activity,
"CC/C=C\C/C=C\C/C=C\CCCCCCCC(=O)O [linolenic acid, Z,Z,Z-9,12,15-octadecatrienoic acid]",antibacterial activity,
Cc1cc(O)cc2oc3cc(O)cc(O)c3c(=O)c12 [norlichexanthone],,inhibit MRSA-growth in vitro
